Data taken from US20120128770A1, “TREATMENT OF INSULIN RESISTANCE AND OBESITY BY STIMULATING GLP-1 RELEASE” (Kobenhavns Universitet, priority 2009, published 2012).

Key:
tGLP-1 release = experiment: Clinical experiment: duodenal bolus in healthy male volunteers, plasma tGLP-1 release; assay type: in vivo, human; conditions: for plasma tGLP-1 levels during the first 25 minutes: duodenal bolus, compared to vehicle
Procedure: FIG. 4. Stimulation of tGLP-1 release by 2OG in the intestinal lumen. Eight healthy male volunteers were given enteral feeding by duodenal tube. Each volunteer was given three different liquid meals (two grams of 2OG(▴), 1.54 grams of oleic (∘) acid or vehicle (⋄)) on three different days. The vehicle consisted of 50 ml glycerol plus 5 ml ethanol. Data are mean values±SEM and were analysed by repeated measurements ANOVA.
8 healthy male volunteers (20-30 years, BMI 20-25) that had fasted 10 hours, were given enteral feeding by duodenal tube. The liquid meals were prepared 5 min before use. Each volunteer was given three different liquid meals (clear solution, bolus 55 ml) on three different days (A-C).
Day A: 2OG (2 g) in 50 ml glycerol+5 ml ethanol Day B: oleic acid (1.54 g) in 50 ml glycerol+5 ml ethanol Day C: 50 ml glycerol+5 ml ethanol Blood Samples were collected at the following points (min): −15, −10, 0, 10, 20, 30, 40, 50, 60, 75, 90, 120, 150, 180, 240.
In serum was measured: insulin and C-peptide
In plasma was measured: glucose, tGLP-1, Cholecystokinin (CCK).
The methods for these assays have been described previously (ref 18).

human GPR119 receptor [1] = target: T1, human GPR119 receptor (Homo sapiens, UniProt Q8TDV5); experiment: Ligand-induced GPR119 activation, cAMP accumulation (3H-adenine) in transiently transfected COS-7 cells; assay type: cell-based; parameters: expressed in transfected cells; host or cells: COS-7
T1 sequence (Q8TDV5 1-335): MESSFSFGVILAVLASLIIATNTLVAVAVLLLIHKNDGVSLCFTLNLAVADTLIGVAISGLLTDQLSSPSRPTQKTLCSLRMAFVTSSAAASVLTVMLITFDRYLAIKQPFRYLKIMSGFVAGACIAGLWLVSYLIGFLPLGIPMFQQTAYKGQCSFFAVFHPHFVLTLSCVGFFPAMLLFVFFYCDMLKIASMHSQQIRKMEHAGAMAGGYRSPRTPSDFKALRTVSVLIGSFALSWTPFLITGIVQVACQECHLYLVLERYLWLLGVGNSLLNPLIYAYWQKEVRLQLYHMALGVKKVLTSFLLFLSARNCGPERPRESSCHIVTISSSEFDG
Procedure: Three different ligands were tested: (C) oleoylethanolamide (OEA), (A) 2-oleoylglycerol (2OG), and (D) oleic acid, by measurement of cAMP accumulation. Briefly, COS-7 cells were transiently transfected with the human GPR119 receptor (squares) or empty vector (negative control, triangle). The cells were seeded in plates one day after transfection, incubated for 24 hours with 2 μCi/ml of ^3H-adenine. At the day of the cAMP measurement, the cells incubated with the ligands for 25 minutes, lysed, and the cAMP purified using Dowex and alumina columns. The data represent sum-curves of three independent experiments (n=3), performed in duplicates. All dose-response curves were normalized to the efficacy of OEA in each experiment, and the data are shown as ligand-induced activation above basal receptor activity.
Briefly, COS-7 cells were transiently transfected with human GPR119 receptor (squares) or empty vector (negative control, triangle). The cells were seeded in plates one day after transfection, incubated for 24 hours with 2 μCi/ml of ^3H-adenine. At the day of the cAMP measurement, the cells were incubated with the ligand for 25 minutes, lysed, and the cAMP purified using Dowex and alumina columns. The data represent sum-curves of the 7 independent experiments, performed in duplicates.
GPR119 receptor signalling experiments were carried out using COS-7 cells transiently transfected with the human GPR119 receptor. The COS-7 cells were grown at 10% CO2 and 37° C. in Dulbecco's modified Eagle's medium with glutamax (Gibco, Cat. No 21885-025) adjusted with 10% fetal bovine serum (FBS), 180 u/ml penicillin and 45 ug/mL streptomycin (PenStrep). Transfection of the COS-7 cells was performed by the calcium phosphate precipitation method. The cells were seeded in 24 well plates (1.5×10^5 cells/well) one day after transfection, and were subsequently incubated for 24 hours with 2 μCi/ml of 3H-adenine in 0.5 ml growth medium per well. At the day of the cAMP measurement, the cells were washed twice in HBS buffer (25 mM Hepes, pH 7.2, supplemented with 0.75 mM NaH2PO4, 140 mM NaCl and 0.05% (w/v) bovine serum albumin), and 0.5 ml HBS buffer supplemented with 1 mM of the phosphodiesterase inhibitor IBMX (3-isobutyl-1-methylxanthine, Sigma chemicals Co., St. Louis, Mo., USA) was added together with increasing concentrations of the different compounds (2OG, 1OG, OEA, oleic acid or 2-PG). After 25 min incubation at 37° C., the cells were placed on ice, the medium was removed, and the cells were lysed in 1 ml of 5% (w/v) trichloroacetic acid, supplemented with 0.1 mM cAMP and 0.1 mM ATP for 30 min. The lysate mixtures were loaded onto Dowex columns (Bio-Rad, Hercules, Calif., USA), which were washed with 2 ml of water and placed onto the top of alumina columns (Sigma) and washed again with 10 ml of water. The alumina columns were eluted with 6 ml of 0.1 M imidazole into 15 ml scintillation fluid (Highsafe III). Columns were re-used up to 15 times. Dowex columns were regenerated by adding 10 ml of 2 N HCl followed by 10 ml of water; the alumina columns were regenerated by adding 2 ml of 1 M imidazole, 10 ml of 0.1 M imidazole, and finally 5 ml of water. Determinations were made in duplicate.

human GPR119 receptor [2] = target: T1, human GPR119 receptor; experiment: Ligand-induced GPR119 activation, cAMP formation (HTRF) in CHO-K1 cells; assay type: cell-based; parameters: expressed in transfected cells; conditions: for cAMP formation / GPR119 activation in words: CHO-K1 cells transiently expressing GPR119, FIG. 1; for EC50: CHO-K1 cells, cAMP formation
Procedure: FIG. 1. Ligand-induced GPR119 activation in CHO-K1 cells. Five different ligands were tested. Oleoylethanolamide, H-1: 2-oleoylglycerol, H-2: 1-oleoyleglycerol, H-4: oleic acid, and H-5: 2-palmitoylglycerol. cAMP was measured by a HTRF kit from CisBio International. Three experiments (each in duplicate) were performed using oleoylethanolamide as positive control in each experiment. All dose-response curves were normalized to the efficacy of OEA in each experiment, and the data are shown as ligand-induced activation above basal receptor activity.
GPR119 receptor signalling experiments were carried out using CHO-K1 cells transiently transfected with the human GPR119 receptor. CHO-K1 cells expressing GPR119 grown to mid-log phase prior to the test in culture media without antibiotics and supplemented with doxycycine (final concentration 200 ng/ml) were detached be gentle flushing with PBS-EDTA (5 mM EDTA), recovered by centrifugation and resuspended in Ham's F12 culture medium containing 10% FCS and no antibiotic. Cells were counted, centrifuged in a 50 ml Falcon tube and resuspended in KRH-IBMX (5 mM KCL, 1.25 mM MgSO4, 124 mM NaCl, 25 mM HEPES, 13.3 mM glucose, 1.25 mM KH2PO4, 1.45 mM CaCl2, 0.6 mg/ml BSA and […] Phenol red, pH 7.4) at a concentration of 6.25×10^5 cells/ml. Cells were then filled in 96 well plates (total vol 24 μl/well) and stimulated with agonists in serial dilution for 30 min. cAMP was then measured using a HTRF kit from CisBio International (cat no. 62AM2PEB). Determinations were made in duplicate.

[3] = COS-7 cells, cAMP formation, n = 3, read-out: EC-values for activation of GPR119, COS-cells (n = 3)
[4] = transiently transfected COS-7 cells, Table 2, read-out: EC50 for activation of GPR119
[5] = experiment 1, read-out: EC-values for activation of GPR119, CHO-exp-1
[6] = experiment 2, read-out: EC-values for activation of GPR119, CHO-exp-2
[7] = experiment 3, read-out: EC-values for activation of GPR119, CHO-exp-3

Row | EC50 (human GPR119 receptor [1]; [3]) [µM] | GPR119 agonism (efficacy normalized to OEA) (human GPR119 receptor [1]; cAMP formation, COS-7 cells (also CHO-K1)) | EC50 (human GPR119 receptor [1]; [4]) [µM] | cAMP formation / GPR119 activation in words (human GPR119 receptor [2]) | EC50 (human GPR119 receptor [2]; [5]) [µM] | EC50 (human GPR119 receptor [2]; [6]) [µM] | EC50 (human GPR119 receptor [2]; [7]) [µM] | Compound | plasma cholecystokinin levels (tGLP-1 release; comparison between groups, data not shown) | plasma tGLP-1 levels during the first 25 minutes (tGLP-1 release; fasted volunteers) | incremental area under the curve (iAUC) of tGLP-1 for the first 25 min (tGLP-1 release; healthy male volunteers, duodenal tube, 2 g 2OG or 1.54 g oleic acid in 50 ml glycerol + 5 ml ethanol, mean±SEM) [nM×25 min] | plasma levels of glucose (tGLP-1 release; increase after 25 min in all three groups, comparison between groups, data not shown) | insulin or c-peptide levels (tGLP-1 release; serum, fasted volunteers, data not shown)
1 | 2.8 | full agonist | 4.2 | increase cAMP formation | 1.55 | 1.12 | – | CCCCCCCC/C=C\CCCCCCCC(=O)OC(CO)CO [2-Oleoylglycerol, 2-oleoylglycerol] | no difference | significant increased levels of tGLP-1 | 0.07±0.02 | no difference between groups | no effect
2 | 1.4 | – | – | – | 1.43 | 4.65 | 1.67 | CCCCCCCC/C=C\CCCCCCCC(=O)NCCO [Oleoylethanolamide, oleoylethanolamide, reference compound] | – | – | – | – | –
3 | – | – | > 30 | activator of GPR119 | – | – | – | CCCCCCCCCCCCCCCC(=O)OC(CO)CO [2-palmitolyglycerol (2PG), 2-palmitoylglycerol] | – | – | – | – | –
4 | 32.6 | – | > 30 | – | – | – | > 30 | CCCCCCCC/C=C\CCCCCCCC(=O)O [oleic acid, reference compound] | – | did not increase plasma levels of GLP-1 | – | – | –

Row | Compound | EC50 (human GPR119 receptor [1]; [3]) [µM] | GPR119 agonism (efficacy normalized to OEA) (human GPR119 receptor [1]; cAMP formation, COS-7 cells (also CHO-K1)) | EC50 (human GPR119 receptor [1]; [4]) [µM] | cAMP formation / GPR119 activation in words (human GPR119 receptor [2]) | EC50 (human GPR119 receptor [2]; [5]) [µM] | EC50 (human GPR119 receptor [2]; [6]) [µM] | EC50 (human GPR119 receptor [2]; [7]) [µM] | plasma cholecystokinin levels (tGLP-1 release; comparison between groups, data not shown) | plasma tGLP-1 levels during the first 25 minutes (tGLP-1 release; fasted volunteers) | incremental area under the curve (iAUC) of tGLP-1 for the first 25 min (tGLP-1 release; healthy male volunteers, duodenal tube, 2 g 2OG or 1.54 g oleic acid in 50 ml glycerol + 5 ml ethanol, mean±SEM) [nM×25 min] | plasma levels of glucose (tGLP-1 release; increase after 25 min in all three groups, comparison between groups, data not shown) | insulin or c-peptide levels (tGLP-1 release; serum, fasted volunteers, data not shown)
5 | CCCCCCCC/C=C\CCCCCCCCOC(CO)CO [2OG-ether] | – | – | 7.9 | – | – | – | – | – | – | – | – | –
